From ChEMBL document CHEMBL3046747, “Assessment of species specificity of moulting accelerating compounds in Lepidoptera: comparison of activity between Bombyx mori and Spodoptera littoralis by in vitro reporter and in vivo toxicity assays” (Pest Manag Sci, 2010) come the findings set out here.

The structures appear in SMILES notation.

The target of test [1] is T1, Ecdysone receptor (Spodoptera littoralis) (UniProt E3UJZ5).
T1 sequence (whole entry): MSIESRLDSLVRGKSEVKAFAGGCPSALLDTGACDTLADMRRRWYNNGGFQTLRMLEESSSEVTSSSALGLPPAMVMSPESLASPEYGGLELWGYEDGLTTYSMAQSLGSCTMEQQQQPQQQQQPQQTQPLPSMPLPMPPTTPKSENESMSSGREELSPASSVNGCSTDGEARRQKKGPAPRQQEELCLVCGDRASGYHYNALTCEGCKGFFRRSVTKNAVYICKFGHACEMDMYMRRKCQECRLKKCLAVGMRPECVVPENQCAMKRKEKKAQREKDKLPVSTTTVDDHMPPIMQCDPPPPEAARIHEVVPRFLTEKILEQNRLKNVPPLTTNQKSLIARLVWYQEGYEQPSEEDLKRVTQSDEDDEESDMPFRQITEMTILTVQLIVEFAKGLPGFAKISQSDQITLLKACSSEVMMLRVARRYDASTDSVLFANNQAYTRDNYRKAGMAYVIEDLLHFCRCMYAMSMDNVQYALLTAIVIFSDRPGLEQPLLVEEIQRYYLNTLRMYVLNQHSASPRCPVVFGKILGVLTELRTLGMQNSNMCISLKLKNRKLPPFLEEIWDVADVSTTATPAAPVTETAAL
The experiment in a line: Agonist activity at ecdysone receptor in Spodoptera littoralis Sl2 cells after 24 hr by luciferase reporter gene assay relative to tebufenozide. The test is classed as cell-based.

Test [2] has as its target T2, Ecdysone receptor (Bombyx mori, UniProt P49881).
T2 sequence (P49881 whole entry): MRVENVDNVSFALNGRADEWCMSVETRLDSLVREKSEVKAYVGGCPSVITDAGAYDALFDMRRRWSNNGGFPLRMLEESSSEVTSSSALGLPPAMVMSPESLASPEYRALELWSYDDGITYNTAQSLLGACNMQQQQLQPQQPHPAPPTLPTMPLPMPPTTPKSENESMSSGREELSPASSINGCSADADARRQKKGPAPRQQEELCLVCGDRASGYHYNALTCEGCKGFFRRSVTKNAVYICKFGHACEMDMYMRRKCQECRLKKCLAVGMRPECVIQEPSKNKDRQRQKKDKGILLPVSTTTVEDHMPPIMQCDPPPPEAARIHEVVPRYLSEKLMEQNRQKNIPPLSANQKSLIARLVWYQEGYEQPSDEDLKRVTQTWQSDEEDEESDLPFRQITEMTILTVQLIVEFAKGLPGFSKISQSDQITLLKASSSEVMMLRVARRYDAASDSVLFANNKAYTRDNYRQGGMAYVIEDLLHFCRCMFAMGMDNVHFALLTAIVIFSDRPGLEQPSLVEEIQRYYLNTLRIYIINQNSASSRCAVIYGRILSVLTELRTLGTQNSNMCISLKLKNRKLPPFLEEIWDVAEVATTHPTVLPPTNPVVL
The experiment in a line: Agonist activity at ecdysone receptor in Bombyx mori Bm5 cells after 24 hr by luciferase reporter gene assay. The test is classed as cell-based. Conditions: read-out: pEC50 (converted). A general note: Reporter assays use an easily measured gene product as a stand-in for the process of interest.

Test [3] deals with Spodoptera littoralis. The experiment in a line: Larvicidal activity against Spodoptera littoralis assessed as mortality applied topically after 1 week. The test is classed as functional.
The test system of test [4] is Bombyx mori. Briefly: Larvicidal activity against Bombyx mori assessed as mortality applied topically after 1 week. The class given is functional.
The target of test [5] is T3, Ecdysone receptor (Spodoptera littoralis, UniProt E3UJZ5).
T3 sequence (E3UJZ5 whole entry): T1 sequence (whole entry)
Briefly: Agonist activity at ecdysone receptor in Spodoptera littoralis Sl2 cells after 24 hr by luciferase reporter gene assay. As to conditions: read-out: pEC50 (converted). The test is classed as cell-based.

A short description of test [6]: Selectivity ratio of EC50 for ecdysone receptor in Bombyx mori Bm5 cells to EC50 for ecdysone receptor in Spodoptera littoralis Sl2 cells. The class given is cell-based.
Test [7] in a line: Ratio of LD50 for Spodoptera littoralis to LD50 for Bombyx mori. The class given is functional.
The target in test [8] is T4, Ecdysone receptor (Bombyx mori) (UniProt P49881).
T4 sequence (whole entry): T2 sequence (P49881 whole entry)
Briefly: Agonist activity at ecdysone receptor in Bombyx mori Bm5 cells after 24 hr by luciferase reporter gene assay relative to tebufenozide. The class given is cell-based.

Take `CCc1ccc(C(=O)NN(C(=O)c2ccccc2)C(C)(C)C)cc1`: the Efficacy in test [1] was determined as 110%; in test [8] it was 84%. Also, the EC50 in test [2] is 17.4 nM; in test [5] it was 110 nM. Besides, the pLD50 in test [3] is listed as less than 5.49; in test [4], 7.09. In addition, the Ratio EC50 in test [6] came to 0.16. Further, the Ratio in test [7] is greater than 39.8.
In the case of `CC(C)(C)N(NC(=O)c1ccc(Cl)cc1)C(=O)c1ccccc1` [HALOFENOZIDE], the Efficacy in test [1] was 107%; in test [8] it was 95%. The EC50 in test [2] is 77.6 nM; in test [5], 457 nM. Further, the pLD50 in test [3] stood at 5.43; in test [4], 6.52. Also, the Ratio EC50 in test [6] came to 0.17. The Ratio in test [7] came out at 12.3.
For `Cc1ccccc1C(=O)NN(C(=O)c1ccccc1Cl)C(C)(C)C`, the Efficacy in test [1] is 124%; in test [8], 98%. The EC50 in test [2] was 129 nM; in test [5], 437 nM. The results for the pLD50 in test [3] and in test [4] were less than 5.46 and 6.69, respectively. For the same compound, the Ratio EC50 in test [6] came out at 0.3. The Ratio in test [7] is greater than 17.
For the compound `Cc1cc(C)c(Cl)c(C(=O)N(NC(=O)c2ccccc2)C(C)(C)C)c1`, the Efficacy was 87% in test [1] and 92% in test [8]. For the same compound, the EC50 in test [2] is 1170 nM; in test [5] it was 1740 nM. Besides, the Ratio EC50 in test [6] was 0.68.
Regarding `CCOc1ccccc1C(=O)N(NC(=O)c1ccc(OC)cc1)C(C)(C)C`, the values for the Efficacy in test [1] and in test [8] were 45% and 59%, respectively. For the same compound, the EC50 in test [2] is 19100 nM; in test [5] it was 21900 nM. Further, the Ratio EC50 in test [6] came out at 0.87.
Regarding `Cc1cc(C)cc(C(=O)N(NC(=O)c2ccccc2)C(C)(C)C)c1`, the Efficacy in test [1] amounted to 75%; in test [8], 118%. Also, the EC50 was 200 nM in test [2] and 501 nM in test [5]. In addition, the pLD50 in test [3] is listed as less than 5.49; in test [4], 5.98. Besides, the Ratio EC50 in test [6] was determined as 0.39. The Ratio in test [7] is greater than 3.09.
Regarding `COc1ccc(C(=O)NN(C(=O)c2cc(C)cc(C)c2Cl)C(C)(C)C)cc1`, the Efficacy in test [1] amounted to 105%; in test [8] it was 100%. For the same compound, the figures for the EC50 in test [2] and in test [5] were 1230 nM and 2040 nM, respectively. Also, the Ratio EC50 in test [6] amounted to 0.6.
In the case of `Cc1c(C(=O)NN(C(=O)c2ccccc2Cl)C(C)(C)C)ccc2c1CCCO2`, the Efficacy stood at 108% in test [1] and 106% in test [8]. Further, the EC50 in test [2] was 2.88 nM; in test [5], 5.37 nM. Also, the values for the pLD50 in test [3] and in test [4] were less than 4.4 and 6.95, respectively. In addition, in test [6], the Ratio EC50 was 0.53. Moreover, the Ratio in test [7] was greater than 355.
`CC(C)(C)N(NC(=O)c1ccccc1)C(=O)c1ccc(Cl)c(Cl)c1Cl`: the Efficacy in test [1] was determined as 95%; in test [8], 79%. Further, the EC50 in test [2] is 3630 nM; in test [5], 5250 nM. Besides, the pLD50 in test [3] and in test [4] was less than 5.4 each time. Further, the Ratio EC50 in test [6] is 0.69.
For the compound `CCC(CC)(NC(=O)c1ccc2c(c1C)CCCO2)C(=O)c1cc(C)cc(C)c1`, the Efficacy in test [1] is 104%; in test [8], 113%. The figures for the EC50 in test [2] and in test [5] were 191 nM and 166 nM, respectively. The Ratio EC50 in test [6] was 1.15.
For `Cc1ccccc1C(=O)N(NC(=O)c1cccc(F)c1)C(C)(C)C` the same measures were 120%, 92%, 324 nM, 457 nM and 0.7.
As for `Cc1cc(C)cc(C(=O)N(NC(=O)c2ccc3c(c2C)CCCO3)C(C)(C)C)c1` [CHROMAFENOZIDE], the Efficacy in test [1] amounted to 103%; in test [8] it was 98%. In addition, the EC50 in test [2] is 1 nM; in test [5] it was 2.63 nM. In addition, the pLD50 in test [3] is 7.53; in test [4], 7.55. In addition, the Ratio EC50 in test [6] worked out at 0.38. Besides, the Ratio in test [7] came to 1.12.
Regarding `Cc1cc(C)cc(C(=O)C2(NC(=O)c3ccc4c(c3C)CCCO4)CCCCC2)c1`, the Efficacy was 106% in test [1] and 102% in test [8]. Also, the EC50 in test [2] was 4.37 nM; in test [5], 3.39 nM. Further, the pLD50 in test [3] is listed as less than 5.39; in test [4], 6.53. For the same compound, in test [6], the Ratio EC50 was found to be 1.29. Moreover, in test [7], the Ratio is greater than 13.8.
With `CCCCc1ccc(C(=O)NN(C(=O)c2ccccc2OCC)C(C)(C)C)cc1`, the values for the Efficacy in test [1] and in test [8] were 41% and 20%, respectively. For the same compound, the figures for the EC50 in test [2] and in test [5] were 16200 nM and 7760 nM, respectively. The Ratio EC50 in test [6] stood at 2.09.
For `CCOc1ccccc1C(=O)N(NC(=O)c1ccc(Cl)cc1)C(C)(C)C` the same measures were 80%, 74%, 7760 nM, 9550 nM and 0.81.
As to `Cc1cc(C)c(Cl)c(C(=O)N(NC(=O)c2ccc(Cl)cc2)C(C)(C)C)c1`, the Efficacy in test [1] was 101%; in test [8], 93%. Moreover, the EC50 in test [2] was 447 nM; in test [5], 1070 nM. In test [6], the Ratio EC50 was 0.42.
Taken in the same sequence, the figures for `CCCCCc1ccc(C(=O)NN(C(=O)c2cc(C)cc(C)c2Cl)C(C)(C)C)cc1` were 76%, 45%, 1780 nM, 3550 nM and 0.5.
Regarding `CC(C)c1ccc(C(=O)NN(C(=O)c2ccccc2Cl)C(C)(C)C)cc1`, the Efficacy stood at 95% in test [1] and 116% in test [8]. Further, the EC50 in test [2] is 6.61 nM; in test [5], 17.4 nM. Besides, the Ratio EC50 in test [6] turned out to be 0.38.
Turning to `CCCc1ccc(C(=O)NN(C(=O)c2ccccc2Cl)C(C)(C)C)cc1`, the Efficacy is 75% in test [1] and 107% in test [8]. Besides, the figures for the EC50 in test [2] and in test [5] were 30.9 nM and 74.1 nM, respectively. Besides, the Ratio EC50 in test [6] came to 0.42.
On to `CCCCCc1ccc(C(=O)NN(C(=O)c2ccccc2Cl)C(C)(C)C)cc1`, for which the Efficacy is 86% in test [1] and 97% in test [8]. The EC50 is 427 nM in test [2] and 324 nM in test [5]. Moreover, in test [6], the Ratio EC50 was 1.32.
For `Cc1ccc(C(=O)NN(C(=O)c2cc(C)cc(C)c2Cl)C(C)(C)C)cc1` the same measures were 85%, 108%, 302 nM, 1350 nM and 0.22.
For `CCOc1ccccc1C(=O)N(NC(=O)c1ccc(CC)cc1)C(C)(C)C` the same measures were 89%, 92%, 2880 nM, 6920 nM and 0.42.
For `CCc1ccc(C(=O)NC(CC)(CC)C(=O)c2cc(C)cc(C)c2)cc1` the same measures were 96%, 95%, 1260 nM, 4270 nM and 0.29.
With `CCCCc1ccc(C(=O)NN(C(=O)c2cc(C)cc(C)c2Cl)C(C)(C)C)cc1`, the Efficacy in test [1] is 69%; in test [8], 45%. Also, the results for the EC50 in test [2] and in test [5] were 1150 nM and 1120 nM, respectively. Further, the Ratio EC50 in test [6] is 1.02.
Turning to `CC(C)(C)N(NC(=O)c1ccccc1)C(=O)c1ccccc1C(F)(F)F`, the Efficacy in test [1] was 98%; in test [8] it was 92%. For the same compound, the EC50 in test [2] is 871 nM; in test [5], 794 nM. Further, the Ratio EC50 in test [6] was 1.1.
